Source: patent US20120202756A1, “USE OF PRODRUGS TO AVOID GI MEDIATED ADVERSE EVENTS” (priority 2009, published 2012)
pIC50: −log10 of the molar value. Converted amounts (≈) assume the structure as drawn. “And” between values parts separate entries of the source, which are not always exact repeats. Identical values can stand only once. Like-named read-outs stand apart in the source and are kept apart here.

Assays:
[1] = target: human acetylcholineesterase (Homo sapiens, UniProt P22303); experiment: Human acetylcholineesterase activity in vitro assay (CEREP); format: biochemical
[2] = Stability in USP simulated gastric juice; format: in vitro ADME; details: USP SGF pH 1.1, pepsin […], prodrug 20 μg/mL
Description: To minimize the direct inhibitory action of this drug on gastric emptying/gut motility—and resultant nausea—the prodrug should not undergo premature chemical or enzymic cleavage back to the parent drug while within the gut lumen.

[3] = Stability in simulated intestinal juice (FaSSIF); format: in vitro ADME; details: FaSSIF pH 6.5, pancreatin 1%, prodrug 20 μg/mL
Experimental: (§1) To avoid direct interaction between the active drug and the gut microfloral population, the prodrug should not undergo premature chemical or enzymic cleavage back to the parent dug while within the gut lumen. To confirm this the prodrugs were incubated with USP SGF (simulated gastric fluid), FeSSIF (fed state simulated intestinal fluid) and FaSSIF (fasted state simulated intestinal fluid) and remaining prodrug and any generated active drug assayed by use of a qualified LC-MS/MS analytical method.
(§2) Method—Prodrug (20 μg/mL) in the FaSSIF cocktail comprising sodium taurocholate 3 mM, lecithin 0.75 mM, NaOH 8.7 mM, NaH2PO4. H2O 28.7 mM, NaCl 106 mM, pancreatin 1% (overall pH 6.5) was incubated for 2 h at 37° C. After acidifying the incubation to stop any reaction the amount of prodrug remaining and drug generated were determined using a qualified LC-MS/MS method.
(§3) To minimize the direct inhibitory action of this drug on gastric emptying/gut motility—and resultant nausea—the prodrug should not undergo premature chemical or enzymic cleavage back to the parent drug while within the gut lumen. To confirm this, the prodrugs were incubated with USP SGF (simulated gastric fluid), FeSSIF (fed state simulated intestinal fluid) and FaSSIF (fasted state simulated intestinal fluid) and remaining prodrug, and any generated active drug, assayed by use of a qualified LC-MS/MS analytical method.
as §2, with “Prodrug” for “Method—Prodrug”
as §1, with “gut,” for “gut microfloral population,”

[4] = Stability in simulated intestinal juice (FeSSIF); format: in vitro ADME; details: FeSSIF pH 5.0, pancreatin 1%
Experimental: as §1
Pancreatin was again added at 1%.
as §3
as §1, with “gut,” for “gut microfloral population,”

[5] = Bioavailability of donepezil from its prodrugs in the male beagle dog; details: relative bioavailability of donepezil vs dosing donepezil itself, male dogs
Description: (§4) Subsequent pharmacokinetic analysis was then undertaken using Win NonLin to generate the relevant PK parameters including Cmax, Tmax and AUC and T1/2.

[6] = Bioavailability of donepezil from its prodrugs in the cynomolgus monkey; details: relative bioavailability of donepezil vs dosing donepezil itself, male monkeys
Description: as §4

[7] = tested on: Bacteroides thetaiotamicron; experiment: MIC agar dilution; format: cell-based
[8] = tested on: Bifidobacterium adolescentis; experiment: MIC agar dilution; format: cell-based; details: NCTC11814
Bifidobacterium dentium = experiment: MIC agar dilution; format: cell-based; details: NCTC11816
Bifidobacterium longum = experiment: MIC agar dilution; format: cell-based; details: NCTC11818
Clostridium bifermentans = experiment: MIC agar dilution; format: cell-based; details: Paraclostridium bifermentans, ATCC638
Clostridium difficile = experiment: MIC agar dilution; format: cell-based; details: Clostridioides difficile
Clostridium novyi = experiment: MIC agar dilution; format: cell-based; details: ATCC19402
Clostridium perfringens = experiment: microbe, parasite or virus in culture; format: cell-based
Clostridium sordellii = experiment: MIC agar dilution; format: cell-based; details: Paraclostridium sordellii, NCTC13356; NCTC 13356
Clostridium sporogenes = experiment: MIC agar dilution; format: cell-based; details: ATCC3584, ATCC 3584
Eggerthella lenta = experiment: MIC agar dilution; format: cell-based; details: ATCC43055, ATCC 43055
[9] = tested on: Fusobacterium necrophorum; experiment: MIC agar dilution; format: cell-based; details: clinical isolate
[10] = tested on: Peptostreptococcus anaerobius; experiment: MIC agar dilution; format: cell-based; details: NCTC11460
[11] = tested on: Peptostreptococcus magnus; experiment: MIC agar dilution; format: cell-based; details: Finegoldia magna; clinical isolate
[12] = tested on: Peptostreptococcus micros; experiment: MIC agar dilution; format: cell-based; details: Parvimonas micra; clinical isolate
[13] = tested on: Porphyromonas assacharolyticus; experiment: MIC agar dilution; format: cell-based; details: clinical isolate
[14] = tested on: Porphyromonas endodontalis; experiment: MIC agar dilution; format: cell-based; details: clinical isolate
Prevotella bivia = experiment: MIC agar dilution; format: cell-based; details: ATCC29303, ATCC 29303
Prevotella denticola = experiment: MIC agar dilution; format: cell-based; details: clinical isolate
Veillonella atypical = experiment: MIC agar dilution; format: cell-based; details: NCTC11830
Veillonella parvula = experiment: MIC agar dilution; format: cell-based; details: NCTC11810
Veillonella spp. = experiment: MIC agar dilution; format: cell-based; details: clinical isolate
[15] = Bioavailability of metronidazole from its prodrugs in the rat; details: for T>50% Cmax: period plasma metronidazole at or above 50% of Cmax, oral 1 mg equivalents/kg
Experimental: In order to confirm successful absorption and subsequent hydrolysis of these metronidazole prodrugs, a comparative bioavailability study was undertaken in the rat Methods—Three groups of five male Sprague Dawley rats were orally dosed with either metronidazole itself or its succinyl valine or glutaryl para-amino benzoic acid ester prodrugs. Serial tail vein blood samples were subsequently collected via an indwelling cannuala into EDTA tubes containing a stabilising cocktail (including 6 mg/mL NaF) to prevent post collection enzymic hydrolysis of the prodrug. Separated plasma samples were subjected to bioanalysis for both the prodrugs and metronidazole itself using a qualified LC/MS-MS bioanalytical method.

Bacteroides fragilis = experiment: MIC agar dilution
Propionibacterium acnes = experiment: MIC agar dilution
Campylobacter coli = experiment: MIC agar dilution
Campylobacter jejuni = experiment: MIC agar dilution
Helicobacter pylori = experiment: MIC agar dilution
[16] = NCTC13366, NCTC 13366 - NAP1/027
[17] = antibiotic-susceptible clinical isolate
[18] = clinical isolate MIC clindamycin 0.5 mg/L
[19] = clinical isolate (first listed, r83)
[20] = clinical isolate (second listed, r85)

human acetylcholineesterase, sequence (P22303 32-614): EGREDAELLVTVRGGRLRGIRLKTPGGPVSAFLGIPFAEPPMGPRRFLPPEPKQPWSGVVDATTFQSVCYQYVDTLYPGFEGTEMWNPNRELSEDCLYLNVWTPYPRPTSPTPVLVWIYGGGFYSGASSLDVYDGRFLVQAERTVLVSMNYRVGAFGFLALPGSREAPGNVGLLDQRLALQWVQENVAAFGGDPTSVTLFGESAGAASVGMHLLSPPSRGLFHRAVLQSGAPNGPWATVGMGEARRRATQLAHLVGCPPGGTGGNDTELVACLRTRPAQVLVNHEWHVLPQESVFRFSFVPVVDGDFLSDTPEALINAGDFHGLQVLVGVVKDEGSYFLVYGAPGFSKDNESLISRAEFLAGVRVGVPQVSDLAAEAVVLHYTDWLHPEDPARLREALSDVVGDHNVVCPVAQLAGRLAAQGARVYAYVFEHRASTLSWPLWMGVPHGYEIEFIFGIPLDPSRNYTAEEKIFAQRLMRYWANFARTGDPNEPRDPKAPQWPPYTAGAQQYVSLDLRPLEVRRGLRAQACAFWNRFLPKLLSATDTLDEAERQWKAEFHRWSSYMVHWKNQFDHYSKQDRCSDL

COc1cc2c(cc1OC)C(OC(=O)CCCC(=O)O)=C(CC1CCN(Cc3ccccc3)CC1)C2 [Donepezil glutaryl enol ester, Donepezil-(Glutaryl) enol ester]
pIC50 [1]: 6.08

COc1cc2c(cc1OC)C(OC(=O)CCCC(=O)N[C@H](C(N)=O)C(C)C)=C(CC1CCN(Cc3ccccc3)CC1)C2 [Donepezil glutaryl valinamide, donepezil[glutaryl-(S)-valinamide]enol ester]
Simulated gastric juice (1 h, 37° C.) % active drug generated [2]: <2.0% | Simulated intestinal juice (2 h, 37° C.) (FaSSIF) % active drug generated [3]: <2.0% | Simulated intestinal juice (2 h, 37° C.) (FeSSIF) % active drug generated [4]: <2.0% | Frel ([5]; individual animals): 85% and 25% and 62% and 44% and 28% | Frel ([5]; mean): 49% | Frel ([6]; individual animals): 97% and 44% and 99% and 64% and 89% | Frel ([6]; mean): 79%

Cc1ncc([N+](=O)[O-])n1CCO [Metronidazole, metronidazole, reference compound]
MIC ([7]; ATCC29741): 1 µg/mL (≈ 5.84 µM) | MIC ([7]; NCTC10582): 1 µg/mL (≈ 5.84 µM) | MIC [8]: 32 µg/mL (≈ 187 µM) | MIC (Bifidobacterium dentium): 16 µg/mL (≈ 93.5 µM) | MIC (Bifidobacterium longum): 8 µg/mL (≈ 46.7 µM) | MIC (Clostridium bifermentans): 0.25 µg/mL (≈ 1.46 µM) | MIC (Clostridium difficile; ATCC700057, ATCC 700057): 0.12 µg/mL (≈ 0.701 µM) | MIC (Clostridium difficile; [16]): 0.12 µg/mL (≈ 0.701 µM) | MIC (Clostridium difficile; [17]): 0.06 µg/mL (≈ 0.351 µM) | MIC (Clostridium novyi): 0.5 µg/mL (≈ 2.92 µM) | MIC (Clostridium perfringens): 2 µg/mL (≈ 11.7 µM) | MIC (Clostridium perfringens; ATCC13124): 1 µg/mL (≈ 5.84 µM) | MIC (Clostridium sordellii): 0.5 µg/mL (≈ 2.92 µM) | MIC (Clostridium sporogenes): 0.06 µg/mL (≈ 0.351 µM) | MIC (Eggerthella lenta): 0.5 µg/mL (≈ 2.92 µM) | MIC [9]: 0.12 µg/mL (≈ 0.701 µM) | MIC [10]: 0.12 µg/mL (≈ 0.701 µM) | MIC [11]: 0.25 µg/mL (≈ 1.46 µM) | MIC [12]: 0.25 µg/mL (≈ 1.46 µM) | MIC [13]: 0.5 µg/mL (≈ 2.92 µM) | MIC [14]: 1 µg/mL (≈ 5.84 µM) | MIC (Prevotella bivia): 1 µg/mL (≈ 5.84 µM) | MIC (Prevotella denticola): 0.5 µg/mL (≈ 2.92 µM) | MIC (Veillonella atypical): 8 µg/mL (≈ 46.7 µM) | MIC (Veillonella parvula): 4 µg/mL (≈ 23.4 µM) | MIC (Veillonella spp.): 2 µg/mL (≈ 11.7 µM) | time of peak plasma levels after dosing ([15]; oral, male rats): ≤ 15 min | T>50% Cmax ([15]; male rats, individual animals): 1.5 h and 1.75 h and 2.75 h and 3.0 h and 2.5 h | T>50% Cmax ([15]; male rats, mean): 2.3 ± 0.65 h and 2.3 h | MIC (Bacteroides fragilis): 0.5 µg/mL (≈ 2.92 µM) | MIC (Bacteroides fragilis; ATCC25285): 0.5 µg/mL (≈ 2.92 µM) | MIC (Propionibacterium acnes; Cutibacterium acnes): > 64 µg/mL | MIC (Propionibacterium acnes; [18]): >64 µg/mL | MIC (Campylobacter coli): 1 µg/mL (≈ 5.84 µM) | MIC (Campylobacter coli; ATCC33559): 0.5 µg/mL (≈ 2.92 µM) | MIC (Campylobacter jejuni): 8 µg/mL (≈ 46.7 µM) | MIC (Campylobacter jejuni; ATCC33560): 1 µg/mL (≈ 5.84 µM) | MIC (Helicobacter pylori; [19]): 2 µg/mL (≈ 11.7 µM) | MIC (Helicobacter pylori; [20]): 2 µg/mL (≈ 11.7 µM)

Cc1ncc([N+](=O)[O-])n1CCOC(=O)CCC(=O)N[C@H](C(=O)O)C(C)C [Metronidazole succinyl valine ester, Metronidazole-[succinyl-(S)-valine]ester]
MIC ([7]; ATCC29741): > 64 µg/mL | MIC ([7]; NCTC10582): > 64 µg/mL | MIC [8]: > 64 µg/mL | MIC (Bifidobacterium dentium): > 64 µg/mL | MIC (Bifidobacterium longum): > 64 µg/mL | MIC (Clostridium bifermentans): > 64 µg/mL | MIC (Clostridium difficile; ATCC700057, ATCC 700057): 32 µg/mL (≈ 86.4 µM) | MIC (Clostridium difficile; [16]): 64 µg/mL (≈ 173 µM) | MIC (Clostridium difficile; [17]): 32 µg/mL (≈ 86.4 µM) | MIC (Clostridium novyi): > 64 µg/mL | MIC (Clostridium perfringens): > 64 µg/mL | MIC (Clostridium perfringens; ATCC13124): > 64 µg/mL | MIC (Clostridium sordellii): > 64 µg/mL | MIC (Clostridium sporogenes): 32 µg/mL (≈ 86.4 µM) | MIC (Eggerthella lenta): > 64 µg/mL | MIC [9]: 32 µg/mL (≈ 86.4 µM) | MIC [10]: 32 µg/mL (≈ 86.4 µM) | MIC [11]: 64 µg/mL (≈ 173 µM) | MIC [12]: 64 µg/mL (≈ 173 µM) | MIC [13]: > 64 µg/mL | MIC [14]: > 64 µg/mL | MIC (Prevotella bivia): > 64 µg/mL | MIC (Prevotella denticola): > 64 µg/mL | MIC (Veillonella atypical): > 64 µg/mL | MIC (Veillonella parvula): > 64 µg/mL | MIC (Veillonella spp.): > 64 µg/mL | Tmax ([15]; male, Sprague Dawley, rat, in vivo, po): 2.0 h | MIC (Bacteroides fragilis): > 64 µg/mL | MIC (Bacteroides fragilis; ATCC25285): > 64 µg/mL | MIC (Propionibacterium acnes; Cutibacterium acnes): > 64 µg/mL | MIC (Propionibacterium acnes; [18]): >64 µg/mL | MIC (Campylobacter coli): > 64 µg/mL | MIC (Campylobacter coli; ATCC33559): > 64 µg/mL | MIC (Campylobacter jejuni): > 64 µg/mL | MIC (Campylobacter jejuni; ATCC33560): > 64 µg/mL | MIC (Helicobacter pylori; [19]): 64 µg/mL (≈ 173 µM) | MIC (Helicobacter pylori; [20]): 64 µg/mL (≈ 173 µM)
